According to US20260199464A1, “COMPOSITIONS AND METHODS FOR ENHANCING CAR-T CELL PERFORMANCE AND FOR CANCER IMMUNOTHERAPY” (The Regents of the University of California, priority 2022, published 2026):

What was measured:
CD19 CAR T cell = assay: ZAA combined with CD19 CAR T cell treatment of established solid tumors (FIG. 9); assay type: in vivo, mice
From the text: FIG. 9 graphically illustrates data showing that ZAA can be combined with CAR T cell treatment of established solid tumors to increase the ability of CAR T cells to accumulate intratumorally. Tumor-bearing mice received tumor-specific CAR T cells in combination with Zaragozic Acid A. Tumor cells contained the surface protein CD19, which is recognized by the CAR anti-CD19 on the CD8 T cell (CD19 CAR T cell).

MC38-GP33-41 tumors = assay: ZAA treatment of mice implanted with MC38-GP33-41 tumors, with or without CD8 T cell depletion; assay type: in vivo
From the text: (§1) For adoptive therapy experiments, 5×10^5 B16-GP33-41 cells or MC38-GP33-41, which were verified Mycoplasma negative by PCR, and authenticated by in vitro killing assays, were transplanted subcutaneously into the right flank of wild-type B6 mice. After tumors became palpable, 7-8 days after transplantation, in vitro activated and expanded P14 CD8 T cells were transferred intravenously. For comparison of TIL accumulation in a mixed transfer setting, naive P14 CD8 T cells were activated, transduced and expanded with 50 U/mL of hIL-2 for 2-3 days; cells transduced with control constructs (Cd19 shRNAmir) or experimental constructs (Srebf2 shRNAmir) were mixed 1:1 and 1×10^6 P14 cells were transferred intravenously. For efficacy studies, transduced cells were expanded for 5-6 days; transduced cells were then sorted, and 1×10^6-2.5×10^6 cells were transferred intravenously into mice with established MC38-GP33-41 or B16-GP33-41 tumors. Tumors were monitored daily, and mice with ulcerated tumors or tumors exceeding 400 mm^2 were euthanized, in accordance with Univ. Calif. San Diego (UCSD) Institutional Animal Care and Use Committee (IACUC).
At day 6 after tumor injection, the mice were randomized and treated every other day with ZAA (Santa Cruz Biotechnology) or vehicle control by alternating intravenous ([…]) and intraperitoneal ([…]) injections until day 16. For combination therapy with anti-PD1 (programmed cell death protein 1 (PD-1)) antibody, ZAA was administered with the same schedule, and three consecutive treatments of anti-PD1 (InVivoMab anti-mouse PD-1 (CD279), BioXCell, BE0033-2) at 200 μg/mouse were delivered IP on days 9, 10, and 11 after tumor injection. Isotype control for Syrian IgG was used (InVivoMAb polyclonal Syrian hamster IgG, BioXCell). […]

[1] = tested on: B16-GP33-41 melanoma tumors; assay: ZAA combined with anti-PD-1 in B16-GP33-41 melanoma tumors; assay type: in vivo, mice; conditions: ZAA combined with anti-PD-1 treatment
From the text: as §1
At day 6 after tumor injection, the mice were randomized and treated every other day with ZAA (Santa Cruz Biotechnology) or vehicle control by alternating intravenous ([…]) and intraperitoneal ([…]) injections until day 16. […]

B16-F10 tumors = assay: ZAA combined with anti-PD1 antibody, B16-F10 tumors implanted s.c. in B6 mice (FIG. 7, FIG. 8); assay type: in vivo
Experimental: FIG. 7 graphically illustrates data showing that tumor Growth Curves in B16-F10 tumors implanted subcutaneously (s.c.) in B6 mice. Tumor-bearing mice were treated with a combination of Zaragozic Acid A and anti-PD1 antibody.
FIG. 8 graphically illustrates data showing that ZAA synergizes with anti-PD1 therapy. Tumor-bearing mice were treated with a combination of Zaragozic Acid A and anti-PD1 antibody.
At day 6 after tumor injection, the mice were randomized and treated every other day with ZAA (Santa Cruz Biotechnology) or vehicle control by alternating intravenous ([…]) and intraperitoneal ([…]) injections until day 16. For combination therapy with anti-PD1 (programmed cell death protein 1 (PD-1)) antibody, ZAA was administered with the same schedule, and three consecutive treatments of anti-PD1 (InVivoMab anti-mouse PD-1 (CD279), BioXCell, BE0033-2) at 200 μg/mouse were delivered IP on days 9, 10, and 11 after tumor injection. Isotype control for Syrian IgG was used (InVivoMAb polyclonal Syrian hamster IgG, BioXCell). For CD8-depleting experiments in combination with ZAA, anti-CD8a Ab (2.43 BioXCell) was administered intraperitoneally at a dose of 200 μg/mouse starting 2 days prior to tumor implantation for three consecutive days (−2, −1, 0), followed by 2 additional doses of 100 μg/mouse on days 4 and 8, and ZAA treatment scheduled was started at day 4 after tumor implantation. Isotype control for Rat IgG2 was used (InVivoMAb rat IgG2a isotype control, anti-trinitrophenol, BioXCell).

[2] = Dependence of antitumor actions of ZAA on the immune system (FIG. 6); assay type: in vivo
P14 CD8 T cells = assay type: in vivo, mice
[3] = ZAA vs vehicle, MC38-GP33-41 tumors
[4] = combination of Zaragozic Acid A and anti-PD1 antibody, B16-F10 s.c.

Compound: C=C(CCC12O[C@H](C(=O)O)[C@@](O)(C(=O)O)C(C(=O)O)(O1)[C@H](OC(=O)/C=C/[C@@H](C)C[C@@H](C)CC)[C@H]2O)[C@@H](OC(C)=O)[C@H](C)Cc1ccccc1 (stereo partly shown) [ZAA, zaragozic acid A]
- interaction with CD19 CAR T cell therapy (CD19 CAR T cell; FIG. 9): synergizes
- ability of CAR T cells to accumulate intratumorally (CD19 CAR T cell; tumor-specific CD19 CAR T cells in combination with ZAA, CD19-bearing tumor cells): increase
- dependence of the antitumor effect on CD8 T cells (MC38-GP33-41 tumors; ZAA in combination with CD8 T cell depletion): CD8-dependent
- survival of mice (MC38-GP33-41 tumors; [3]): improved
- tumor growth (MC38-GP33-41 tumors; [3]): reduced
- control of B16-GP33-41 melanoma tumors [1]: greater control
- interaction with anti-PD1 therapy (B16-F10 tumors; FIG. 8, independent tumor growth curves from FIG. 7): synergizes
- treatment of established tumors, efficacy of the combination (B16-F10 tumors; [4]): effectively
- treatment of established tumors, safety of the combination (B16-F10 tumors; [4]): safely
- antitumor actions, dependence on the immune system [2]: depend on the immune system

Compound: CC[C@H](C)C(=O)O[C@H]1C[C@@H](C)C=C2C=C[C@H](C)[C@H](CC[C@@H]3C[C@@H](O)CC(=O)O3)[C@H]21 [lovastatin]
- accumulation of P14 CD8 T cells responding to LCMV in the SI (P14 CD8 T cells; day 7 of infection, compared to the control group (vehicle)): impaired
- SI TRM (P14 CD8 T cells; day 21 after LCMV infection): sustained loss
- accumulation of memory T cells in the spleen (P14 CD8 T cells; day 21 after LCMV infection): impaired accumulation
